Results: patent US20180008665A1, “METHODS OF TREATING AND PREVENTING GOUT AND LEAD NEPHROPATHY” (priority 2016, published 2018)

What was measured:
[1] = Description: (§1) Each tablet contains 450 mg of pharmaceutical grade of GSH powder.
(§2) Seven (7) subjects with gout and hyperuricemia were examined. Specifically, these seven subjects were part of an open-label, twelve (12) weeks study in which they received 2700 mg daily (450 mg/tablet, 2 tablets/time, 3 times/day) of (2S)-2-Amino-4-{[(1R)-1-[(carboxymethyl)carbamoyl]-2-sulfanylethyl]carbamoyl}butanoic acid (hereinafter “CT° 1”).

[2] = remark: listed apart in the source
Description: as §1, §2
All of the subjects were classified as renally impaired (glomerular filtration rate <80 ml/minute). A serum creatinine test measures the level of creatinine in the blood and provides an estimate of glomerular filtration rate that indicates the excretory function of the kidney. If the kidney functions improperly, an increased level of creatinine may accumulate in the blood.

[3] = initiation during an acute gout attack, 57 men with crystal-proven gout; cited from earlier work
[4] = in vivo; cited from earlier work
[5] = after 12 weeks of treatment versus first visit, 2700 mg daily oral

N[C@@H](CCC(=O)N[C@@H](CS)C(=O)NCC(=O)O)C(=O)O [CT°I, (2S)-2-Amino-4-{[(1R)-1-[(carboxymethyl)carbamoyl]-2-sulfanylethyl]carbamoyl}butanoic acid]
mean blood lead level after 12 weeks of treatment ([1]; 7 subjects, 2700 mg daily oral, 12 weeks, first visit 49.90±8.41 μg/dL): 37.26 ± 6.29 µg/dL
mean serum urate after 12 weeks of treatment ([1]; 7 subjects, 2700 mg daily oral, 12 weeks, first visit 521.07±40.11 mg/L): 346.46 ± 21.17 mg/L
reduction of blood lead level [1, 5]: 25.33%
reduction of serum urate [1, 5]: 33.51%
significance of the reduction of blood lead level ([1]; p<0.05, 2700 mg daily oral): significantly different after 12 weeks of treatment
significance of the reduction of serum urate ([1]; p<0.05, 2700 mg daily oral): significantly different after 8 weeks of treatment
mean serum creatinine after 12 weeks of treatment ([2]; 7 subjects, 2700 mg daily oral, 12 weeks, first visit 135.29±6.89 μmol/L): 99.00 ± 4.45 µmol/L
reduction of serum creatinine [2, 5]: 26.82%
significance of the reduction of serum creatinine ([2]; p<0.05, 2700 mg daily oral): significantly different after 8 weeks of treatment

Oc1ncnc2[nH]ncc12 [allopurinol]
effect on daily pain, recurrent flares, or inflammatory markers [3]: no significant difference

COc1cc2c(c(OC)c1OC)-c1ccc(OC)c(=O)cc1[C@@H](NC(C)=O)CC2 [colchicine]
part of the dose excreted unchanged by the kidney [4]: 10-20%
removal by hemodialysis [4]: not removable by hemodialysis
